Source: patent US6689397B2, “Identification of snake repellents” (priority 1999, dated 2004)

Legend:
[1] = test system: Brown tree snakes (Boiga irregularis); test: Aerosol tests: 2 s aerosol spray onto snake's head, behavior observed for 5 min; format: in vivo; conditions: single reagents; for activity category from cluster analysis of behaviors (clusters I-V): Ward's method on VM, SM, LAT, TOT, % VM, % SM; for latency to response (movement latency) / movement when sprayed: 2 s aerosol; for latency to response (movement latency): post-hoc comparison with amyl acetate; for movement when sprayed: 5 min observation
Procedure: Brown tree snakes (Boiga irregularis), N=400, were captured on the island of Guam along forest-jungle edge using modified minnow traps with live mice lures or by hand after being spot-lighted on fences. Snakes were individually housed in plastic containers until tested. The holding containers were housed in a military warehouse on Andersen Air Force Base, Guam under a 12:12 light:dark cycle. In general snakes were tested only once. […] Capture of snakes occurred during three separate visits to the island: 1997, 1998, 1999.
Essential oils and individual chemicals were diluted into an inert carrier liquid (water) for the purpose of testing. An emulsifying agent (3× yucca extract) was added to the composition to stabilize the water insoluble essential oils and individual chemicals in aqueous solution. The test formulations consisted of 1% test agent (i.e., a specific essential oil or chemical), 1% 3× yucca extract and 98% water. The formulated contents were held in a reservoir in which a siphon was suspended. Pressurized air, contained in an aerosol can was passed over the orifice of the siphon to create a negative pressure which would drawn the test formulation up through the siphon and eject the formulated contents and pressurized air through a small bore nozzle to create an atomized liquid, i.e. aerosol spray.
For testing, the holding tub was moved to the observation room and the solid lid was replaced with a lid with a screen insert. […] Snakes that became active as a result of the handling were not used in the assay. After a 15 min interval where the snake remained in a coiled position, aerosol was sprayed directly onto the snake's head for 2 s at a distance of 30 mm. Immediately after aerosol application, the observer moved to an observation distance of 3 m. We limited observations to the 5 min following aerosol applications. […] Also, in pilot tests, and with only few exceptions, the escape activity of the snake given an acute (2 s) exposure to the chemical subsided after 5 min.
Behaviors were categorized by a trained observer as follows: VM was a violent, vigorous movement by snakes exposed to the aerosol. This movement was characterized by undirected flailing and vigorous probing of the creases of the test chamber. SM, was characterized as a directed, slow search behavior, often accompanied by tongue flicks. This behavior could also be classified as investigatory behavior. In both cases the duration (s) of these behaviors was noted. The time from the application of the stimulus to the onset of either VM or SM was defined as the latency, LAT-VM and LAT-SM, respectively. For the purposes of analysis we used the latency to the first locomotory behavior, LAT, as the quantifiable metric. TOT was defined as the total amount of time (s) that a snake was engaged in locomatory behavior. The time spent in each locomatory behavior relative to the total active time was defined as % VM and % SM, respectively.
We used a fixed effects analysis of variance for the a priori comparison across chemicals. In the first set of analyses, essential oil was the between measures effects while behavior was the dependent variable. We used a post hoc Tukey's Honest Significance Difference test to isolate differences among test stimuli for each of the behavioral measures. Similar analyses were performed for the single reagents. We also categorized reagents into groups that yielded similar combinations of behaviors using cluster analysis (STATISTICA 1999). Amalgamation of clusters was achieved using Ward's method. This approach is distinct from most clustering algorithms in that it uses an analysis of variance approach to evaluate the distances between clusters. The distance measure used was a Chebychev distance. This approach tends to maximize the number of clusters because it is sensitive to differences among objects along single dimensions. The behavioral dimensions considered were: VM, SM, LAT, TOT, % VM, and % SM.

brown treesnakes = conditions: in vivo; cited from earlier work

| SMILES | activity category from cluster analysis of behaviors (clusters I-V) [1] | irritant to brown treesnakes (brown treesnakes) | latency to response (movement latency) [1] | movement when sprayed [1] |
| --- | --- | --- | --- | --- |
| CC(C)C12CCC(C)(CC1)O2 [1,4-cineole] | most active |  |  |  |
| c1ccc2ccccc2c1 [Naphthalene] |  | not an irritant |  |  |
| CC1=CCC2CC1C2(C)C (stereo not shown) [a-pinene] | moderately active |  |  |  |
| CC1=CC=C(C(C)C)CC1 [a-terpinene] | only weakly active |  | longer than amyl acetate |  |
| CCCCCOC(C)=O [amyl acetate] | highly irritating, but poor at promoting long-term locomatory behavior |  | shortest |  |
| CC12CCC(CC1=O)C2(C)C (stereo not shown) [camphor] | did not react |  | longer than amyl acetate | did not move at all |
| O=CC=Cc1ccccc1 [cinnamaldehyde] | most active |  |  |  |
| O=C(O)C=Cc1ccccc1 [cinnamic acid] | did not react |  | longer than amyl acetate | did not move at all |
| CC(C)=CCCC(C)=CC=O [citral] | most active |  |  |  |
| CCCC(=O)OCC [ethyl butyrate] | only weakly active |  | longer than amyl acetate |  |
| CCOC(=O)Cc1ccccc1 [ethyl phenyl acetate] | moderately active |  |  |  |
| C=CCc1ccc(O)c(OC)c1 [eugenol] | moderately active |  |  |  |
| CC(C)=CCC/C(C)=C/CO [geraniol] | did not react |  | longer than amyl acetate | did not move at all |
| CC(=O)OC/C=C(\C)CCC=C(C)C [geranyal acetate] | most active |  |  |  |
| C=C(C)[C@H]1CC=C(C)CC1 [limonene] | only weakly active |  | longer than amyl acetate |  |
| C=CC(C)(O)CCC=C(C)C (stereo not shown) [linalool] | only weakly active |  | longer than amyl acetate |  |
| COc1cccc(C=O)c1 [m-anisaldehyde] | most active |  |  |  |
| CC(C)[C@@H]1CC[C@@H](C)CC1=O [menthone] | highly irritating, but poor at promoting long-term locomatory behavior |  |  |  |
| COC(=O)c1ccccc1N [methyl anthranilate] | highly irritating, but poor at promoting long-term locomatory behavior |  |  |  |
| COC(=O)c1ccccc1O [methyl salicylate] | most active |  |  |  |
| CC(C)=CCC/C(C)=C\CO [nerol] | moderately active |  | longer than amyl acetate |  |
| C/C=C/c1ccc(OC)cc1 [trans-anethole] | most active |  |  |  |
